Among the data in PubChem BioAssay AID288 (DTP/NCI, 2004) are T/C values, retold here.

Values joined by “and” are separate entries in the source; they are usually repeats but may differ in a detail not shown here. Identical values can stand only once. Records with an inconclusive call do not appear.

The experiment deals with BDF1 mice, M5076 sarcoma s.c., survival/tumor T/C. Kind of experiment: NCI In Vivo Anticancer Drug Screen. Data for tumor model Sarcoma M5076 (subcutaneous) in B6D2F1 (BDF1) mice. The method, then: The antitumor activity of compounds was measured in mice bearing transplantable tumors. Survival or tumor size were measured and the results are expressed as the measurement made in the treated group (T) divided by the measurement made in the vehicle treated control group (C). The tumor model used in this assay is Sarcoma M5076 (subcutaneous) in B6D2F1 (BDF1) mice

The mark [1] stands for this setting: endpoint: median survival time, dose: 50.0 mg/kg/injection, schedule: Q01DX009 (ip), vehicle: saline with Tween-80, higher = longer survival.

Take `CC1CCC(NC(=O)N(CCCl)N=O)CC1` (centres undefined): the T/C is, setting by setting: (endpoint: median survival time, dose: 2.5 mg/kg/injection, schedule: Q04DX009 (ip), vehicle: saline with Tween-80, higher = longer survival) 109 % of control; (endpoint: median survival time, dose: 5.0 mg/kg/injection, schedule: Q02DX011 (ip), vehicle: Klucel (hydroxypropylcellulose) (HPC), higher = longer survival) 296 % of control; (endpoint: median survival time, dose: 5.0 mg/kg/injection, schedule: Q02DX033 (ip), vehicle: saline with Tween-80, higher = longer survival) 230 % of control; (endpoint: median survival time, dose: 5.0 mg/kg/injection, schedule: Q04DX005 (ip), vehicle: other, higher = longer survival) 191 % of control; (endpoint: median survival time, dose: 5.0 mg/kg/injection, schedule: Q04DX009 (ip), vehicle: saline with Tween-80, higher = longer survival) 150 % of control; (endpoint: median survival time, dose: 10.0 mg/kg/injection, schedule: Q02DX033 (ip), vehicle: saline with Tween-80, higher = longer survival) 252 % of control. Further, the T/C was 233 % of control (endpoint: median survival time, dose: 10.0 mg/kg/injection, schedule: Q04DX005 (ip), vehicle: other, higher = longer survival); 298 % of control (endpoint: median survival time, dose: 10.0 mg/kg/injection, schedule: Q04DX009 (ip), vehicle: saline with Tween-80, higher = longer survival); 160 % of control (endpoint: median survival time, dose: 20.0 mg/kg/injection, schedule: Q01DX003 (ip), vehicle: saline with Tween-80, higher = longer survival); 320 % of control (endpoint: median survival time, dose: 20.0 mg/kg/injection, schedule: Q04DX009 (ip), vehicle: saline with Tween-80, higher = longer survival); 154 % of control and 171 % of control (endpoint: median survival time, dose: 30.0 mg/kg/injection, schedule: Q01DX001 (ip), vehicle: saline with Tween-80, higher = longer survival); 160 % of control and 191 % of control (endpoint: median survival time, dose: 30.0 mg/kg/injection, schedule: Q01DX001 (oral), vehicle: saline with Tween-80, higher = longer survival). Also, the T/C (endpoint: median survival time, dose: 40.0 mg/kg/injection, schedule: Q01DX001 (oral), vehicle: saline with Tween-80, higher = longer survival) is 179 % of control and 237 % of control (2×); the T/C (endpoint: median survival time, dose: 50.0 mg/kg/injection, schedule: Q01DX001 (ip), vehicle: saline with Tween-80, higher = longer survival) was 153 % of control and 226 % of control (2×); the T/C (endpoint: median survival time, dose: 50.0 mg/kg/injection, schedule: Q01DX001 (oral), vehicle: saline with Tween-80, higher = longer survival) was 194 % of control and 229 % of control (2×); the T/C (endpoint: median survival time, dose: 60.0 mg/kg/injection, schedule: Q01DX001 (oral), vehicle: saline with Tween-80, higher = longer survival) is 229 % of control (2×) and 233 % of control.
Consider `Nc1nc(N)c2c(ccc3nccc32)[nH]1`, for which the T/C is, setting by setting: (endpoint: median survival time, dose: 12.5 mg/kg/injection, schedule: Q01DX009 (ip), vehicle: saline with Tween-80, higher = longer survival) 86 % of control; (endpoint: median survival time, dose: 25.0 mg/kg/injection, schedule: Q01DX009 (ip), vehicle: saline with Tween-80, higher = longer survival) 92 % of control; (endpoint: median tumor weight (est.), dose: 12.5 mg/kg/injection, schedule: Q01DX009 (ip), vehicle: saline with Tween-80, higher = larger tumour) 80 % of control; (endpoint: median tumor weight (est.), dose: 25.0 mg/kg/injection, schedule: Q01DX009 (ip), vehicle: saline with Tween-80, higher = larger tumour) 62 % of control.
Regarding `CNNCc1ccc(C(=O)NC(C)C)cc1`, the T/C (endpoint: median survival time, dose: 44.0 mg/kg/injection, schedule: Q04DX006 (ip), vehicle: saline, higher = longer survival) is 118 % of control; the T/C (endpoint: median survival time, dose: 88.0 mg/kg/injection, schedule: Q02DX033 (ip), vehicle: saline, higher = longer survival) was 214 % of control; the T/C (endpoint: median survival time, dose: 88.0 mg/kg/injection, schedule: Q04DX006 (ip), vehicle: saline, higher = longer survival) is 151 % of control; the T/C (endpoint: median survival time, dose: 176.0 mg/kg/injection, schedule: Q02DX033 (ip), vehicle: saline, higher = longer survival) is 92 % of control; the T/C (endpoint: median survival time, dose: 176.0 mg/kg/injection, schedule: Q04DX006 (ip), vehicle: saline, higher = longer survival) is 216 % of control; the T/C (endpoint: median survival time, dose: 352.0 mg/kg/injection, schedule: Q04DX006 (ip), vehicle: saline, higher = longer survival) was 179 % of control.
`O=NN(CCCl)C(=O)NCCCl`: the T/C is, setting by setting: (endpoint: median survival time, dose: 1.35 mg/kg/injection, schedule: Q04DX009 (ip), vehicle: saline with Tween-80, higher = longer survival) 108 % of control; (endpoint: median survival time, dose: 2.7 mg/kg/injection, schedule: Q02DX033 (ip), vehicle: saline, higher = longer survival) 233 % of control; (endpoint: median survival time, dose: 2.7 mg/kg/injection, schedule: Q04DX009 (ip), vehicle: saline with Tween-80, higher = longer survival) 121 % of control; (endpoint: median survival time, dose: 5.4 mg/kg/injection, schedule: Q02DX033 (ip), vehicle: saline, higher = longer survival) 171 % of control; (endpoint: median survival time, dose: 5.4 mg/kg/injection, schedule: Q04DX009 (ip), vehicle: saline with Tween-80, higher = longer survival) 254 % of control; (endpoint: median survival time, dose: 6.0 mg/kg/injection, schedule: Q01DX009 (ip), vehicle: saline + alcohol, higher = longer survival) 159 % of control. In addition, the T/C reads like this: (endpoint: median survival time, dose: 10.8 mg/kg/injection, schedule: Q04DX009 (ip), vehicle: saline with Tween-80, higher = longer survival) 238 % of control; (endpoint: median tumor weight (est.), dose: 1.5 mg/kg/injection, schedule: Q01DX009 (ip), vehicle: saline + alcohol, higher = larger tumour) 25 % of control.
In the case of `O=C(O)c1c(CS(F)(F)(F)(F)F)cc(=O)oc1CS(F)(F)(F)(F)F`, the T/C under setting [1] is 98 % of control.
Turning to `CCC(C)C(NS(=O)(=O)c1ccc(C)cc1)C(=O)O` (centres undefined), the T/C is, setting by setting: under setting [1], 87 % of control; (endpoint: median survival time, dose: 100.0 mg/kg/injection, schedule: Q01DX009 (ip), vehicle: saline with Tween-80, higher = longer survival) 92 % of control; (endpoint: median survival time, dose: 200.0 mg/kg/injection, schedule: Q01DX009 (ip), vehicle: saline with Tween-80, higher = longer survival) 92 % of control.
Turning to `CS(=O)(=O)OCCCCOS(C)(=O)=O`, the T/C (endpoint: mean tumor weight, dose: 15.0 mg/kg/injection, schedule: Q02DX011 (ip), vehicle: Klucel (hydroxypropylcellulose) (HPC), higher = larger tumour) is 56 % of control.
